Target: T1, wild-type NALP1 (Homo sapiens, UniProt Q9C000)
T1 construct: to generate full-length NALP1 in frame with EGFP; expressed in transfected cells; host or cells: HeLa cells, transient transfection with the pEGFP-N3 based plasmid; S-100 extract used
T1 sequence (Q9C000 1-1473): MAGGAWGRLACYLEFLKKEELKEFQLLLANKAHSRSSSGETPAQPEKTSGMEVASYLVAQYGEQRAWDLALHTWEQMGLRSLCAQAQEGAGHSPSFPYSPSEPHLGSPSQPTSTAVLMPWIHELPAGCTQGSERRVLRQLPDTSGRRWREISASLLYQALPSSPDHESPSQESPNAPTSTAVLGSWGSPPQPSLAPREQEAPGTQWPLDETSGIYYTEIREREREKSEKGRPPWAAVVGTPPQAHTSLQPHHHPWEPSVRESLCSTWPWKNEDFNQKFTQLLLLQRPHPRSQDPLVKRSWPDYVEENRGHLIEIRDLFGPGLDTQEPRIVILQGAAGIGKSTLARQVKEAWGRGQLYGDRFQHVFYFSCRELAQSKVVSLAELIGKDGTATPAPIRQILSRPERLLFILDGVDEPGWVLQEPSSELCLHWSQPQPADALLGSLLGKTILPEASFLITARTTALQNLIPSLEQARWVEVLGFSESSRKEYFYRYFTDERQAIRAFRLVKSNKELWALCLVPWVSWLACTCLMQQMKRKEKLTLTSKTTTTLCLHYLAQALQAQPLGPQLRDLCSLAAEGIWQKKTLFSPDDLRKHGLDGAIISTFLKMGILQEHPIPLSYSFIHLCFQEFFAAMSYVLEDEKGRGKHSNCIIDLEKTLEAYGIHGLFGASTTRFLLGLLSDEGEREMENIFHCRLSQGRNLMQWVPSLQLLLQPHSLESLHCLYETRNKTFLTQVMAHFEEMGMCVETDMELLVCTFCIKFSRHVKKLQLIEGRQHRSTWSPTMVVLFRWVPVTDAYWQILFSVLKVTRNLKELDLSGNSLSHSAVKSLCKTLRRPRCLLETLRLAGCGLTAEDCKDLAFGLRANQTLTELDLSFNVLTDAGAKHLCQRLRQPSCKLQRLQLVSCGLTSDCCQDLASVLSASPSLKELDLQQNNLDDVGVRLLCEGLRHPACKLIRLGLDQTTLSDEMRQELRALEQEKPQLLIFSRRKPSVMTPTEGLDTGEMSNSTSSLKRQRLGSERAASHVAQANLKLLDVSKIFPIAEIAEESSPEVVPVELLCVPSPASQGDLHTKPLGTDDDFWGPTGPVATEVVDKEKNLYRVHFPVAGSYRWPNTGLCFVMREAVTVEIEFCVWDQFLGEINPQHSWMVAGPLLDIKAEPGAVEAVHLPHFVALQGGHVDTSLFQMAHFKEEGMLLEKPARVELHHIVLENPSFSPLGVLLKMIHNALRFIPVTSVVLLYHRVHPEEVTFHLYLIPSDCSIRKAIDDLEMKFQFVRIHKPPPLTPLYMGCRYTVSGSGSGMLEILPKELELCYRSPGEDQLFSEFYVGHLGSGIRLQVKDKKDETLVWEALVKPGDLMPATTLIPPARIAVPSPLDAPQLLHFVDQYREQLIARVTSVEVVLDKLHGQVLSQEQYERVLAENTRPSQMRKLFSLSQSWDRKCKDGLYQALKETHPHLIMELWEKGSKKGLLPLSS
Test: Fluorimetric DEVDase (caspase-3) assay in HeLa cell extracts expressing wild-type NALP1-EGFP
Format: biochemical
Settings: 2 mM dATP, 2 mM MgCl2, 1 hour, Ac-DEVD-AMC substrate
Method: Cell extract preparation and fluorimetric assay of caspase activity. Preparation of cell extracts, dATP incubation and caspase-3 activities assays were performed as described by Liu et al. (1996). Briefly, HeLa cells were grown in DMEM, 10% FBS. Cells were plated in T175 flasks to 60% confluence. Control vector pEGFP or wild-type or NBS mutant NALP1-EGFP expression plasmids were transfected into HeLa cells using Lipofectamine Plus. Cells were collected in homogenization buffer (20 mM HEPES pH 7.5, 10 mM KCl, 1 mM sodium EDTA, […], 1 mM sodium EGTA, 0.1% CHAPS, 1 mM DTT, 0.1 mM PMSF and protease inhibitor cocktail tablets (Roche)), 24 hours after transfection. Cells were chilled on ice for 15 minutes and homogenized by douncing 30 times in a glass douncer. Samples were centrifuged at 1000×g for 10 minutes at 4° C. […] After 2 hours incubation, liberation of AMC (7-amino-4-methylcoumarin) from the substrate was monitored using excitation/emission wavelength pairs (λex/λem) of 380/460 nm using a SpectraFluor Plus instrument (Tecan). Triplicate samples were evaluated with or without specific inhibitors. […] Normalized data from multiple experiments were expressed as means±standard deviation. For each experiment, the expression of EGFP-tagged NALP1 proteins was analyzed by anti-GFP immunoblot and quantified by densitometry.

- DEVDase activity, extracts with wild-type NALP1: significantly elevated
SMILES: Nc1ncnc2c1ncn2[C@H]1C[C@H](O)[C@@H](COP(=O)(O)OP(=O)(O)OP(=O)(O)O)O1 [dATP]

Reference: patent US20040248775A1, “Methods for screening inhibitors of apoptosis” (Wyeth, priority 2003, published 2004)
